According to ChEMBL document CHEMBL1201862, “PubChem BioAssay data set” (2004):
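Results reflect a 48-hour exposure of cells in 96-well plates to compound at five concentrations. GI50 marks 50% less growth.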 Calls of active or inactive are those of the source. Rule as the data show it: active = GI50 up to about 1.1 µM and inactive = higher.

Columns and labels:
Assay in all cases: NCI-60 cell line screen, 48 h
[1] = test system: DMS-114
[2] = test system: DMS-273
[3] = test system: HOP-18
[4] = test system: KM-20L2
[5] = test system: M19-MEL
[6] = test system: XF498
[7] = test system: LXFL 529
[8] = test system: DLD-1
[9] = test system: RXF 631

Measured: GI50

CCCSc1nc(COC(=O)NC)c(COC(=O)NC)n1C
inactive: [1] 38.7 µM | [2] > 95.5 µM | [3] > 100 µM | [4] > 100 µM | [5] > 95.1 µM | [6] > 100 µM

Cc1cc(O)nc(NN2C(Cl)C(=O)C2c2cccc([N+](=O)[O-])c2)n1 (stereo not drawn)
inactive: [1] 21.8 µM | [2] 15.6 µM | [3] 18.5 µM | [4] 27.3 µM | [7] 16 µM | [5] 19.5 µM

C/C=C/C(C#N)O[Si](C)(C)C (stereo not drawn)
inactive: [8] > 100 µM | [1] > 100 µM | [2] > 100 µM | [3] > 100 µM | [4] > 100 µM | [7] > 100 µM | [5] > 100 µM | [6] > 100 µM

CC1(C)C2CCC3(OCCO3)C1C1OC12 (stereo not drawn)
inactive: [2] > 100 µM | [3] 45.6 µM | [4] > 100 µM | [9] > 100 µM | [6] > 100 µM

COc1ccc(CCC2NCCc3cc(OC)c(OC)cc32)cc1 (stereo not drawn)
inactive: [8] > 100 µM | [3] > 100 µM | [4] > 100 µM | [7] > 100 µM | [6] > 100 µM

C=C(Nc1ccc(OC)cc1OC)C(=O)Cc1cccc[n+]1[O-]
inactive: [8] > 100 µM | [1] > 100 µM | [2] > 100 µM | [3] > 100 µM | [4] > 100 µM | [7] > 100 µM | [5] > 100 µM | [6] > 100 µM

CCOC(=O)C1C(=O)CN2CCc3c([nH]c4ccccc34)C12C(=O)OCC (stereo not drawn)
inactive: [8] > 100 µM | [1] > 100 µM | [2] > 100 µM | [3] 72.8 µM | [4] > 100 µM | [7] > 100 µM | [5] > 100 µM | [9] > 100 µM | [6] > 100 µM

Cc1ccc(NC(=O)/C(=N\Nc2ccc([N+](=O)[O-])cc2[N+](=O)[O-])C2C(=O)NC(=O)NC2=O)cc1
inactive: [8] 21.1 µM | [1] 49.2 µM | [3] > 100 µM | [4] 15.4 µM | [7] 13.3 µM | [5] > 100 µM | [9] > 100 µM

Cc1ccc(-c2nnc3s/c(=C\c4ccc(N(C)C)cc4)c(=O)n23)cc1
inactive: [8] > 100 µM | [1] > 100 µM | [2] > 100 µM | [3] > 100 µM | [4] > 100 µM | [7] > 100 µM | [5] > 100 µM | [9] > 100 µM | [6] > 100 µM

O=S(=O)(N/N=C/c1c(Cl)cccc1Cl)c1ccccc1
inactive: [8] > 100 µM | [1] > 100 µM | [2] > 100 µM | [3] > 100 µM | [4] > 100 µM | [7] > 100 µM | [5] > 100 µM | [9] > 100 µM | [6] 68.4 µM

N#CCC(=O)N/N=C1\C(=O)N(c2ccc(Cl)cc2)C(=O)C(=O)C1c1nc2ccccc2o1 (stereo not drawn)
inactive: [8] > 100 µM | [1] > 100 µM | [2] > 100 µM | [3] > 100 µM | [4] > 100 µM | [7] > 100 µM | [5] > 100 µM | [9] > 100 µM

CCOC(=O)C1S(=O)(=O)OCCOS1(=O)=O
inactive: [8] > 100 µM | [2] > 100 µM | [7] > 100 µM | [5] > 100 µM | [9] > 100 µM | [6] > 100 µM

O=C(c1cccs1)N(C(=S)N1CCN(c2ccccc2)CC1)c1ccccc1
inactive: [8] > 100 µM | [1] > 100 µM | [2] > 100 µM | [3] > 100 µM | [4] > 100 µM | [7] > 100 µM | [5] > 100 µM

Cc1ccc(S(=O)(=O)OC(COC(=O)c2ccccc2)C(OS(=O)(=O)c2ccc(C)cc2)C(OS(=O)(=O)c2ccc(C)cc2)C(COC(=O)c2ccccc2)OS(=O)(=O)c2ccc(C)cc2)cc1 (stereo not drawn)
inactive: [2] > 100 µM | [4] > 100 µM | [7] > 100 µM | [5] > 100 µM

CC1(C)OCC[C@@H]1[Si](C)(C)C
inactive: [1] 49.2 µM | [2] 78.3 µM | [3] 23.1 µM | [4] > 100 µM | [7] > 100 µM | [5] > 100 µM | [9] > 100 µM | [6] 32.8 µM

CC(=O)c1cccc(NC(=O)C(=O)C(C(=O)c2ccccc2F)C2OC(=O)c3ccccc32)c1 (stereo not drawn)
inactive: [8] 45.8 µM | [1] 31 µM | [2] 34 µM | [4] 40.2 µM | [7] 44 µM | [5] 23.1 µM | [9] 21.1 µM | [6] 35.6 µM

CN(/N=C/c1cccc2cccnc12)c1ccc([N+](=O)[O-])cc1[N+](=O)[O-]
inactive: [8] 44.7 µM | [1] 20.2 µM | [2] 34.4 µM | [3] > 100 µM | [4] > 100 µM | [7] > 100 µM | [5] > 78 µM | [9] 36.1 µM | [6] 6.01 µM

C/C(=C/c1c(C)[nH]c(=O)[nH]c1=O)C(=O)O
inactive: [8] > 1370 µM | [1] > 1370 µM | [2] > 1370 µM | [3] > 1370 µM | [4] > 1370 µM | [5] > 1370 µM | [6] > 1370 µM

Cc1cccc(C)c1NC(=O)C(=O)C1C(=O)N(c2ccccc2)N=C1N (stereo not drawn)
inactive: [8] > 100 µM | [1] > 100 µM | [2] > 100 µM | [3] > 100 µM | [4] > 100 µM | [7] > 100 µM | [5] > 100 µM

O=C1C=C(Br)c2c(-c3ccccc3)oc3cccc1c23
inactive: [8] > 100 µM | [1] 24.8 µM | [2] > 42.9 µM | [3] > 100 µM | [4] > 100 µM | [7] > 65.2 µM | [5] > 60.1 µM | [9] 46.8 µM

C[C@@H]1O[C@]2(O)[C@@H]3CCCN3S(=O)(=O)CCN2C1=O
inactive: [8] > 100 µM | [3] > 100 µM | [4] > 100 µM | [7] > 100 µM | [5] > 100 µM | [9] > 100 µM | [6] 8.41 µM

COc1ccc(NC(=O)C(=O)NO)c(OC)c1
inactive: [8] 21.5 µM | [1] 15.5 µM | [2] 16.6 µM | [3] 17.3 µM | [4] 19.1 µM | [7] 16.7 µM | [5] 21.9 µM | [9] 18.6 µM

CCOC(=O)c1c(-c2ccccc2)c(C(OC(c2ccccc2)c2c(-c3ccccc3)c(C(=O)OCC)n3ccccc23)c2ccccc2)c2ccccn12 (stereo not drawn)
inactive: [8] > 100 µM | [2] > 100 µM | [3] > 100 µM | [4] > 100 µM | [7] > 100 µM | [6] > 100 µM

O=C1/C(=C/c2ccccc2)CCC/C1=C\c1ccccc1 [2,6-DIBENZYLIDENECYCLOHEXANONE]
inactive: [8] 3.04 µM | [1] 9.68 µM | [2] 8.04 µM | [3] 19.5 µM | [4] 8.79 µM | [7] 4.5 µM | [5] 1.97 µM | [9] 17.7 µM
